Experimental data as given in EP1054888B1 (priority 1998, dated 1999).
Values after ≈ are worked out from the molar mass of the structure shown.

Experiments:
Test in all cases: microbe, parasite or virus in culture
Type in all cases: cell-based
[1] = tested on: Leptosphaeria nodorum; settings: Parastagonospora nodorum, read-out: MIC (Minimum Inhibitory Concentration) LEPTNO
[2] = tested on: Pyrenophora teres; settings: read-out: MIC (Minimum Inhibitory Concentration) PYRNTE
[3] = tested on: Phytophthora infestans; settings: read-out: MIC (Minimum Inhibitory Concentration) PHYTIN
[4] = tested on: Magnaporthe grisea f. sp. oryzae; settings: Pyricularia oryzae, read-out: MIC (Minimum Inhibitory Concentration) PYRIOR, Table II; total inhibition of mycelial growth, V8 juice nutrient solution, 6-12 days at 18-25°C, visual inspection
[5] = tested on: Alternaria solani; settings: read-out: MIC (Minimum Inhibitory Concentration) ALTESO
[6] = tested on: Botrytis cinerea; settings: read-out: MIC (Minimum Inhibitory Concentration) BOTRCI
[7] = tested on: Rhizoctonia solani; settings: read-out: MIC (Minimum Inhibitory Concentration) RHIZSO

SMILES | MIC [1] [µg/mL] | MIC [2] [µg/mL] | MIC [3] [µg/mL] | MIC [4] [µg/mL] | MIC [5] [µg/mL] | MIC [6] [µg/mL] | MIC [7] [µg/mL]
CCCCCCc1c(-c2c(F)cccc2Cl)c(Cl)nc2ncnn12 [Example 1, 5-chloro-7-n-hexyl-6-(2-chloro-6-fluorophenyl)-1,2,4-triazolo[1,5a]pyrimidine] | 12.5 (≈ 34 µM) | 3.13 (≈ 8.52 µM) | 100 (≈ 272 µM) | 1.56 (≈ 4.25 µM) | – | – | –
CC1CCC(c2c(-c3c(F)cccc3Cl)c(Cl)nc3ncnn23)CC1 (centres unmarked) [Example 2, 5-chloro-7-(4-methylcyclohexyl)-6-(2-chloro-6-fluorophenyl)-1,2,4-triazolo[1,5a]pyrimidine] | – | 1.56 (≈ 4.11 µM) | > 100 | < 0.05 | 0.1 (≈ 0.264 µM) | 0.2 (≈ 0.527 µM) | > 100
CN1C=C(c2c(-c3c(F)cc(F)cc3F)c(Cl)nc3ncnn23)CCC1 [Example 6, 5-chloro-7-(N-methyl-2,3-dehydropiperid-3-yl)-6-(2,4,6-trifluorophenyl)-1,2,4-triazolo[1,5a]pyrimidine] | 25 (≈ 65.8 µM) | – | > 100 | 0.78 (≈ 2.05 µM) | 3.13 (≈ 8.24 µM) | 25 (≈ 65.8 µM) | > 100
COc1nc2ncnn2c(C2CCCCC2)c1-c1c(F)cccc1F [Example 7, 5-methoxy-7-cyclohexyl-6-(2,6-difluorophenyl)-1,2,4-triazolo[1,5a]pyrimidine] | > 100 | > 100 | > 100 | 1.56 (≈ 4.53 µM) | 1.56 (≈ 4.53 µM) | 12.5 (≈ 36.3 µM) | > 100
CCCCc1c(-c2ccccc2C)c(Cl)nc2ncnn12 [Example 19] | 12.5 (≈ 41.6 µM) | 6.25 (≈ 20.8 µM) | 50 (≈ 166 µM) | 0.78 (≈ 2.59 µM) | 1.56 (≈ 5.19 µM) | 12.5 (≈ 41.6 µM) | > 100
CCCCc1c(-c2ccccc2Cl)c(Cl)nc2ncnn12 [Example 20] | 3.13 (≈ 9.74 µM) | 3.13 (≈ 9.74 µM) | > 100 | < 0.05 | 0.2 (≈ 0.623 µM) | 1.56 (≈ 4.86 µM) | 3.13 (≈ 9.74 µM)
CCCCc1c(-c2ccccc2F)c(Cl)nc2ncnn12 [Example 21] | 3.13 (≈ 10.3 µM) | 0.78 (≈ 2.56 µM) | 100 (≈ 328 µM) | < 0.05 | 0.1 (≈ 0.328 µM) | 1.56 (≈ 5.12 µM) | 3.13 (≈ 10.3 µM)
CCCCc1c(-c2c(F)cccc2F)c(Cl)nc2ncnn12 [Example 22] | 1.56 (≈ 4.83 µM) | 6.25 (≈ 19.4 µM) | > 100 | 0.1 (≈ 0.31 µM) | 0.1 (≈ 0.31 µM) | 1.56 (≈ 4.83 µM) | 1.56 (≈ 4.83 µM)
CCCCc1c(-c2ccccc2)c(Cl)nc2ncnn12 [Example 23] | > 100 | > 100 | 50 (≈ 174 µM) | 25 (≈ 87.2 µM) | 6.25 (≈ 21.8 µM) | > 100 | > 100
Fc1cccc(Cl)c1-c1c(F)nc2ncnn2c1C1CCCCC1 [Example 37] | > 100 | > 100 | > 100 | – | – | – | > 100
COc1nc2ncnn2c(C2CCCCC2)c1-c1c(F)cc(F)cc1F [Example 49] | > 100 | 1.56 (≈ 4.31 µM) | > 100 | 0.39 (≈ 1.08 µM) | 0.2 (≈ 0.552 µM) | – | > 100
COc1cc(F)c(-c2c(Cl)nc3ncnn3c2C2CCCCC2)c(F)c1 [Example 68] | 0.39 (≈ 1.03 µM) | – | > 100 | < 0.05 | < 0.05 | < 0.05 | 0.78 (≈ 2.06 µM)
COc1cc(F)c(-c2c(OC)nc3ncnn3c2C2CCCCC2)c(F)c1 [Example 69] | 1.56 (≈ 4.17 µM) | – | > 100 | < 0.05 | < 0.05 | < 0.05 | 3.13 (≈ 8.36 µM)
Fc1cc(F)c(-c2c(Cl)nc3ncnn3c2[C@H]2CC[C@@H](F)CC2)c(F)c1 [Example 71] | 0.78 (≈ 2.03 µM) | – | > 100 | < 0.05 | < 0.05 | 0.2 (≈ 0.52 µM) | 6.25 (≈ 16.2 µM)
COc1cc(F)c(-c2c(Cl)nc3ncnn3c2C2CC=CCC2)c(F)c1 (centres unmarked) [Example 74] | 0.78 (≈ 2.07 µM) | – | > 100 | < 0.05 | < 0.05 | < 0.05 | 0.39 (≈ 1.04 µM)
COc1nc2ncnn2c([C@H]2CC[C@@H](F)CC2)c1-c1c(F)cc(F)cc1F [Example 75] | 12.5 (≈ 32.9 µM) | – | > 100 | 0.39 (≈ 1.03 µM) | 1.56 (≈ 4.1 µM) | 6.25 (≈ 16.4 µM) | > 100
CC(=O)OC1CCC(c2c(-c3c(F)cc(F)cc3F)c(Cl)nc3ncnn23)CC1 (centres unmarked) [Example 84] | 12.5 (≈ 29.4 µM) | – | > 100 | 3.13 (≈ 7.37 µM) | 3.13 (≈ 7.37 µM) | 12.5 (≈ 29.4 µM) | 100 (≈ 235 µM)
COc1cc(F)c(-c2c(Cl)nc3ncnn3c2C2CCC(OC(C)=O)CC2)c(F)c1 (centres unmarked) [Example 85] | 6.25 (≈ 14.3 µM) | – | 25 (≈ 57.2 µM) | 0.78 (≈ 1.79 µM) | 0.78 (≈ 1.79 µM) | 1.56 (≈ 3.57 µM) | > 100
COc1cc(F)c(-c2c(Cl)nc3ncnn3c2[C@H]2CC[C@@H](F)CC2)c(F)c1 [Example 87] | 0.39 (≈ 0.983 µM) | – | > 100 | < 0.05 | < 0.05 | < 0.05 | > 100
COc1cc(F)c(-c2c(OC)nc3ncnn3c2[C@H]2CC[C@@H](F)CC2)c(F)c1 [Example 89] | 6.25 (≈ 15.9 µM) | – | > 100 | < 0.05 | < 0.05 | 1.56 (≈ 3.98 µM) | 12.5 (≈ 31.9 µM)
CCCc1c(-c2c(F)cc(OC)cc2F)c(Cl)nc2ncnn12 [Example 93] | 6.25 (≈ 18.5 µM) | – | 100 (≈ 295 µM) | < 0.05 | 0.2 (≈ 0.59 µM) | 0.2 (≈ 0.59 µM) | 0.39 (≈ 1.15 µM)
COc1cc(F)c(-c2c(Cl)nc3ncnn3c2CC(C)C)c(F)c1 [Example 94] | 3.13 (≈ 8.87 µM) | – | > 100 | < 0.05 | 0.1 (≈ 0.283 µM) | 0.2 (≈ 0.567 µM) | 0.2 (≈ 0.567 µM)
COc1cc(F)c(-c2c(Cl)nc3ncnn3c2C2CCCO2)c(F)c1 (centres unmarked) [Example 95] | 3.13 (≈ 8.53 µM) | – | 100 (≈ 273 µM) | 0.1 (≈ 0.273 µM) | 0.2 (≈ 0.545 µM) | 0.78 (≈ 2.13 µM) | 3.13 (≈ 8.53 µM)
CCCCc1c(-c2c(F)cc(OC)cc2F)c(Cl)nc2ncnn12 [Example 96] | 3.13 (≈ 8.87 µM) | – | > 100 | < 0.05 | < 0.05 | 0.1 (≈ 0.283 µM) | 0.78 (≈ 2.21 µM)
COc1cc(F)c(-c2c(Cl)nc3ncnn3c2C2CCCC2)c(F)c1 [Example 97] | 6.25 (≈ 17.1 µM) | – | > 100 | 0.1 (≈ 0.274 µM) | < 0.05 | 0.2 (≈ 0.548 µM) | 0.39 (≈ 1.07 µM)
CCCc1c(-c2c(F)cc(OC)cc2F)c(OC)nc2ncnn12 [Example 98] | 100 (≈ 299 µM) | – | > 100 | 0.2 (≈ 0.598 µM) | 1.56 (≈ 4.67 µM) | 3.13 (≈ 9.36 µM) | 1.56 (≈ 4.67 µM)
COc1cc(F)c(-c2c(OC)nc3ncnn3c2C2CCCC2)c(F)c1 [Example 99] | > 100 | – | > 100 | 0.39 (≈ 1.08 µM) | 0.39 (≈ 1.08 µM) | 0.78 (≈ 2.16 µM) | 1.56 (≈ 4.33 µM)
COc1cc(F)c(-c2c(OC)nc3ncnn3c2CC(C)C)c(F)c1 [Example 100] | > 100 | – | > 100 | < 0.05 | 0.39 (≈ 1.12 µM) | 0.78 (≈ 2.24 µM) | 1.56 (≈ 4.48 µM)
